Where “and” joins values, the source holds several entries; their conditions need not be identical. Equal entries are not always repeated. Entries after “also recorded” stand apart in the source; their conditions may differ. Marks after values point to notes of the source that are not given here.
How the values were obtained:
Type in all cases: biochemical
[1] = target: T1, Acetylcholinesterase (AChE, E.C. 3.1.1.7, from electric eel) (Electrophorus electricus, UniProt O42275); assay: Crude screening on AChE inhibition (Ellman method); details: 2 μM compounds; means ± SEM of at least three independent experiments; normalized as percentage of control
T1 construct: purchased Sigma Aldrich

[2] = target: T2, AChE (Electrophorus electricus); assay: biochemical; details: inhibition constant against AChE; substrate ATCI at two concentrations
T2 construct: purchased Sigma Aldrich
Protocol: (§1) Kinetic characterization was performed using Dixon’s method. […] Assay medium contained DTNB solution 15 mM (40 µL), AChE solution 10 units/mL (50 µL), substrate solutions (10 µL) and various concentrations of tested compounds (20 µL). […] Results were computed and presented on the Lineweaver–Burk plot to determine the Ki value and to distinguish the type of enzyme inhibition.

[3] = test system: T3, human AChE (Electrophorus electricus); assay: biochemical; details: Lineweaver–Burk plots
T3 construct: purchased Sigma Aldrich
Protocol: as §1

T2 sequence (O42275 24-633): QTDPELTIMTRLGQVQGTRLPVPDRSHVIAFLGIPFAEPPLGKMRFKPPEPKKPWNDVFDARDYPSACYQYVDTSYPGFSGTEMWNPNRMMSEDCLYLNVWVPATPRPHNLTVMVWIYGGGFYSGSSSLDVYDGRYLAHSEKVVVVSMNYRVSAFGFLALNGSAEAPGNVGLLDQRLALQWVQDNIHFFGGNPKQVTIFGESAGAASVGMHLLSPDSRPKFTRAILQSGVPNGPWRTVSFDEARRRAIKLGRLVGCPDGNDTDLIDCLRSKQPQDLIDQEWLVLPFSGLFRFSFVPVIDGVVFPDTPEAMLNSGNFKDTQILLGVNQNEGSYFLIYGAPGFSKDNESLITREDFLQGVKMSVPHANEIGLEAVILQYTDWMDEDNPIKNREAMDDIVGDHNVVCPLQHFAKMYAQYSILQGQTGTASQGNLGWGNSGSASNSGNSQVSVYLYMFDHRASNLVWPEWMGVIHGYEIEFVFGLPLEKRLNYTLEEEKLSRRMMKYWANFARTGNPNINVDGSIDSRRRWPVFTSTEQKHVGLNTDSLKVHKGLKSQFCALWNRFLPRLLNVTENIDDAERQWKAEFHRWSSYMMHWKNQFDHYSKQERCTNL
T3 sequence (O42275 24-633): as above
T1 sequence (O42275 24-633): as above

| Compound | Inhibition Ratio (%) [1] | Ki [2] [nM] | type of enzyme inhibition [3] |
| --- | --- | --- | --- |
| 2-oxo-7-(trifluoromethoxy)-N-(6-((4,11,11-trimethyl-1,2,3,4-tetrahydro-1,4-methanoacridin-9-yl)amino)hexyl)-2H-chromene-3-carboxamide [Compound 8d] | 62.92 ± 3.32 ^e % | – | – |
| 7-bromo-2-oxo-N-(6-((4,11,11-trimethyl-1,2,3,4-tetrahydro-1,4-methanoacridin-9-yl)amino)hexyl)-2H-chromene-3-carboxamide [Compound 8c] | 57.58 ± 3.30 ^fg % | – | – |
| CC12CCC(c3c1nc1ccccc1c3NCCCCCNC(=O)c1cc3ccccc3oc1=O)C2(C)C (centres unmarked) [Compound 7a, 2-oxo-N-(5-((4,11,11-trimethyl-1,2,3,4-tetrahydro-1,4-methanoacridin-9-yl)amino)pentyl)-2H-chromene-3-carboxamide] | 71.11 ± 0.94 ^d % | – | – |
| Cc1ccc2oc(=O)c(C(=O)NCCCCCNc3c4c(nc5ccccc35)C3(C)CCC4C3(C)C)cc2c1 (centres unmarked) [Compound 7b, 6-methyl-2-oxo-N-(5-((4,11,11-trimethyl-1,2,3,4-tetrahydro-1,4-methanoacridin-9-yl)amino)pentyl)-2H-chromene-3-carboxamide] | 85.71 ± 1.66 ^bc % | 190 | – |
| CC12CCC(c3c1nc1ccccc1c3NCCCCCNC(=O)c1cc3cc(Br)ccc3oc1=O)C2(C)C (centres unmarked) [Compound 7c, 6-bromo-2-oxo-N-(5-((4,11,11-trimethyl-1,2,3,4-tetrahydro-1,4-methanoacridin-9-yl)amino)pentyl)-2H-chromene-3-carboxamide] | 50.72 ± 2.98 ^h % | – | – |
| CC12CCC(c3c1nc1ccccc1c3NCCCCCNC(=O)c1cc3cc(OC(F)(F)F)ccc3oc1=O)C2(C)C (centres unmarked) [Compound 7d, 2-oxo-6-(trifluoromethoxy)-N-(5-((4,11,11-trimethyl-1,2,3,4-tetrahydro-1,4-methanoacridin-9-yl)amino)pentyl)-2H-chromene-3-carboxamide] | 47.51 ± 2.65 ^hi % | – | – |
| COc1ccc2oc(=O)c(C(=O)NCCCCCNc3c4c(nc5ccccc35)C3(C)CCC4C3(C)C)cc2c1 (centres unmarked) [Compound 7e, 6-methoxy-2-oxo-N-(5-((4,11,11-trimethyl-1,2,3,4-tetrahydro-1,4-methanoacridin-9-yl)amino)pentyl)-2H-chromene-3-carboxamide] | 86.68 ± 2.18 ^b % | 65.1 | – |
| COc1ccc2cc(C(=O)NCCCCCNc3c4c(nc5ccccc35)C3(C)CCC4C3(C)C)c(=O)oc2c1 (centres unmarked) [Compound 7f, 7-methoxy-2-oxo-N-(5-((4,11,11-trimethyl-1,2,3,4-tetrahydro-1,4-methanoacridin-9-yl)amino)pentyl)-2H-chromene-3-carboxamide] | 81.70 ± 4.82 ^c % | 118 | – |
| COc1cc2cc(C(=O)NCCCCCNc3c4c(nc5ccccc35)C3(C)CCC4C3(C)C)c(=O)oc2cc1OC (centres unmarked) [Compound 7g, 6,7-dimethoxy-2-oxo-N-(5-((4,11,11-trimethyl-1,2,3,4-tetrahydro-1,4-methanoacridin-9-yl)amino)pentyl)-2H-chromene-3-carboxamide] | 84.75 ± 1.27 ^bc % | 153 | – |
| CC12CCC(c3c1nc1ccccc1c3NCCCCCCNC(=O)c1cc3ccccc3oc1=O)C2(C)C (centres unmarked) [Compound 8a, 2-oxo-N-(6-((4,11,11-trimethyl-1,2,3,4-tetrahydro-1,4-methanoacridin-9-yl)amino)hexyl)-2H-chromene-3-carboxamide] | 66.57 ± 1.09 ^de % | – | – |
| Cc1ccc2oc(=O)c(C(=O)NCCCCCCNc3c4c(nc5ccccc35)C3(C)CCC4C3(C)C)cc2c1 (centres unmarked) [Compound 8b] | 86.60% and 86.60 ± 2.13 ^b % | 49.2 | mixed-type inhibition; also recorded: mixed-type inhibitor |
| COc1ccc2oc(=O)c(C(=O)NCCCCCCNc3c4c(nc5ccccc35)C3(C)CCC4C3(C)C)cc2c1 (centres unmarked) [Compound 8e, 6-methoxy-2-oxo-N-(6-((4,11,11-trimethyl-1,2,3,4-tetrahydro-1,4-methanoacridin-9-yl)amino)hexyl)-2H-chromene-3-carboxamide] | 87.48% and 87.48 ± 0.27 ^b % | 50.8 | mixed-type inhibition; also recorded: mixed-type inhibitor |
| COc1ccc2cc(C(=O)NCCCCCCNc3c4c(nc5ccccc35)C3(C)CCC4C3(C)C)c(=O)oc2c1 (centres unmarked) [Compound 8f, 7-methoxy-2-oxo-N-(6-((4,11,11-trimethyl-1,2,3,4-tetrahydro-1,4-methanoacridin-9-yl)amino)hexyl)-2H-chromene-3-carboxamide] | 62.44 ± 1.63 ^e % | – | – |
| COc1cc2cc(C(=O)NCCCCCCNc3c4c(nc5ccccc35)C3(C)CCC4C3(C)C)c(=O)oc2cc1OC (centres unmarked) [Compound 8g, 6,7-dimethoxy-2-oxo-N-(6-((4,11,11-trimethyl-1,2,3,4-tetrahydro-1,4-methanoacridin-9-yl)amino)hexyl)-2H-chromene-3-carboxamide] | 62.74 ± 0.27 ^e % | – | – |
| CC12CCC(c3c1nc1ccccc1c3NCCCCCCCNC(=O)c1cc3ccccc3oc1=O)C2(C)C (centres unmarked) [Compound 9a, 2-oxo-N-(7-((4,11,11-trimethyl-1,2,3,4-tetrahydro-1,4-methanoacridin-9-yl)amino)heptyl)-2H-chromene-3-carboxamide] | 40.65 ± 4.28 ^j % | – | – |
| Cc1ccc2oc(=O)c(C(=O)NCCCCCCCNc3c4c(nc5ccccc35)C3(C)CCC4C3(C)C)cc2c1 (centres unmarked) [Compound 9b, 6-methyl-2-oxo-N-(7-((4,11,11-trimethyl-1,2,3,4-tetrahydro-1,4-methanoacridin-9-yl)amino)heptyl)-2H-chromene-3-carboxamide] | 61.56 ± 4.65 ^ef % | – | – |
| CC12CCC(c3c1nc1ccccc1c3NCCCCCCCNC(=O)c1cc3cc(Br)ccc3oc1=O)C2(C)C (centres unmarked) [Compound 9c, 6-bromo-2-oxo-N-(7-((4,11,11-trimethyl-1,2,3,4-tetrahydro-1,4-methanoacridin-9-yl)amino)heptyl)-2H-chromene-3-carboxamide] | 44.05 ± 2.74 ^ij % | – | – |
| CC12CCC(c3c1nc1ccccc1c3NCCCCCCCNC(=O)c1cc3cc(OC(F)(F)F)ccc3oc1=O)C2(C)C (centres unmarked) [Compound 9d, 2-oxo-6-(trifluoromethoxy)-N-(7-((4,11,11-trimethyl-1,2,3,4-tetrahydro-1,4-methanoacridin-9-yl)amino)heptyl)-2H-chromene-3-carboxamide] | 40.35 ± 2.45 ^j % | – | – |
| COc1ccc2oc(=O)c(C(=O)NCCCCCCCNc3c4c(nc5ccccc35)C3(C)CCC4C3(C)C)cc2c1 (centres unmarked) [Compound 9e, 6-methoxy-2-oxo-N-(7-((4,11,11-trimethyl-1,2,3,4-tetrahydro-1,4-methanoacridin-9-yl)amino)heptyl)-2H-chromene-3-carboxamide] | 62.15 ± 3.14 ^ef % | – | – |
| COc1ccc2cc(C(=O)NCCCCCCCNc3c4c(nc5ccccc35)C3(C)CCC4C3(C)C)c(=O)oc2c1 (centres unmarked) [Compound 9f, 7-methoxy-2-oxo-N-(7-((4,11,11-trimethyl-1,2,3,4-tetrahydro-1,4-methanoacridin-9-yl)amino)heptyl)-2H-chromene-3-carboxamide] | 56.11 ± 2.60 ^g % | – | – |
| COc1cc2cc(C(=O)NCCCCCCCNc3c4c(nc5ccccc35)C3(C)CCC4C3(C)C)c(=O)oc2cc1OC (centres unmarked) [Compound 9g, 6,7-dimethoxy-2-oxo-N-(7-((4,11,11-trimethyl-1,2,3,4-tetrahydro-1,4-methanoacridin-9-yl)amino)heptyl)-2H-chromene-3-carboxamide] | 35.49 ± 3.86 ^k % | – | – |

Reference: paper PMC9000719, “Design, Synthesis and Bioactivity Evaluation of Coumarin–BMT Hybrids as New Acetylcholinesterase Inhibitors” (Molecules, 2022)
